According to publication PMC12051620, “Molecular basis underlying the specificity of an antagonist AA92593 for mammalian melanopsins” (The Journal of Biological Chemistry, 2025):

Test system: jumping spider rhodopsin-1 WT
Assay: GsX GloSensor assay with Gsα/q11
Assay type: cell-based
Conditions: 16.7 μM AA92593, COS-1 cells
Excerpt: We next tested the effect of AA92593 on jumping spider rhodopsin-1, a Gq-coupled visual opsin but not melanopsin (see Figs. 2, S2, and S3) ([41]). Similar to non-mammalian-type and invertebrate melanopsins, jumping spider rhodopsin-1 was not sensitive to AA92593 as assessed using the GsX GloSensor assay (Fig. 7L). […] The introduction of I189^ECL2W/Y207^5.42F impaired the light-dependent cAMP responses even in the absence of AA92593 (Fig. S11). Taken together, the non-melanopsin Gq-coupled opsin cannot be functionally converted to an AA92593-sensitive type by site-directed mutagenesis, in contrast to non-mammalian-type and invertebrate melanopsins. […]
For GloSensor assay, opsins, GloSensor assay sensor (coded by pGlo-22F), and NanoBiT-tagged G proteins were transiently expressed in COS-1 cells (kindly provided from Dr David Farrens, Oregon Health and Science University) using PEI as described previously ([24], [52]). […] For GFP-fluorescence microscopy, a 35-mm cell culture dish (IWAKI) was transfected with 2 μg melanopsin-GFP plasmid and 8 μg PEI in 400 μl Opti-mem and 1.2 ml D-MEM. […]

COc1ccc(S(=O)(=O)N2CCCCC2)cc1C [AA92593]
sensitivity to AA92593: not sensitive
